Measured values from PMC3883289, “DER containing two consecutive GTP-binding domains plays an essential role in chloroplast ribosomal RNA processing and ribosome biogenesis in higher plants” (Journal of Experimental Botany, 2013).

Target: T1, NbDER (MBP:NbDER) (Nicotiana benthamiana, UniProt R4N342, S369A)
T1 construct: gene YphC; without N-terminal chloroplast transit peptide (Met-1 to Ser-60); N-terminal MBP tag kept; E. coli; precursor 651 residues; GD1, GD2 and CTD present; fusion proteins approximately 60-107 kDa
T1 sequence (R4N342 entry or part of it S369A): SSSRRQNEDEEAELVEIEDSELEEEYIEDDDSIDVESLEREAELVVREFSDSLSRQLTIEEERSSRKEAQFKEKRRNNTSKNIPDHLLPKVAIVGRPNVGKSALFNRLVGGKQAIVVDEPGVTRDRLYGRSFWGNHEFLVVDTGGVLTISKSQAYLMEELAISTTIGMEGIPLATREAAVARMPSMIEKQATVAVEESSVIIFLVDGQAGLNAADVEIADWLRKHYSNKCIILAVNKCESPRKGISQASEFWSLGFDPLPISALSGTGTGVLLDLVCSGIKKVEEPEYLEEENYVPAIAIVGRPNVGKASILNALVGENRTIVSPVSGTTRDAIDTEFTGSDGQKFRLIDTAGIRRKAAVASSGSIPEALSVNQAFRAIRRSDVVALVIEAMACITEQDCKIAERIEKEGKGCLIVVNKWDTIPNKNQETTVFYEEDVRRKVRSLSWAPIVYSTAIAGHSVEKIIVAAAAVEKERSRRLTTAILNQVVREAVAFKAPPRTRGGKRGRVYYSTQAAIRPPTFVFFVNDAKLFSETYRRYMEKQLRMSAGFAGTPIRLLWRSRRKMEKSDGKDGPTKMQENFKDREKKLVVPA
Assay: phosphate release, Biomol green
Assay type: biochemical
Conditions: 1 mM GTP, 3 uM protein, HEPES pH 8, 1 mM Mg (printed MgCl4), room temperature, 18 h

Nc1nc2c(ncn2[C@@H]2O[C@H](COP(=O)(O)OP(=O)(O)OP(=O)(O)O)[C@@H](O)[C@H]2O)c(=O)[nH]1 [GTP]
phosphate release, Biomol green: S162A or S369A mutation in NbDER (PM1 or PM2) reduced the k cat values
